# Earlier results in patent US20100285098A1, “ADHERING TROCHES WITH SANTACID FOR TREATMENT OF THROAT ESOPHAGUS AND STOMACH” (priority 2007, published 2010).
absorbed into the blood (delivered to the stomach such as by capsule) [%],inhaled dose systemically absorbed (delivered topically by dry powder inhaler),excretion (in vivo),metabolism by the body (in vivo),SMILES,side effects (other than those caused by the delivery vehicle),suppression of Streptococcus pyogenes (Streptococcus pyogenes),suppression of Helicobacter pylori (Helicobacter pylori)
2,4-17%,excreted in the urine without change,not metabolized,"CC(=O)N[C@H]1[C@H]([C@H](O)[C@H](O)CO)OC(C(=O)O)=C[C@@H]1N=C(N)N [Zanamavir, zanamavir]",Rare side effects,,
,,,,OC[C@@H](O)[C@H](O)[C@@H](O)CO [xylitol],,suppressed,suppressed
